This passage reports target mRNA inhibition results from the OligoGym collection.

This series addresses SNHG14. The conditions noted are these: ASO.
Where [1] appears, read: Mouse Primary Neuronal Cell, 0.005 µM.

After the bases stand the sugars from the 5' end (letter, count) and the backbone: PS all phosphorothioate, else s phosphorothioate and o phosphodiester by linkage. Methylation of C is not given here. l = locked nucleic acid (LNA); d = 2'-deoxy (DNA)

For the sequence CCTACATCTCATACTT (sugars l3 d10 l3, PS), the target mRNA inhibition reads like this: (Human Neuronal Cell, 0.2 µM) -11%; (Human Neuronal Cell, 1 µM) 3%; (Human Neuronal Cell, 5 µM) 13%; under setting [1], 93.4%.

In the case of “CCTACATCTCATACTTG (sugars l2 d13 l2, PS)”, the target mRNA inhibition turned out to be 9% (Human Neuronal Cell, 0.2 µM); 10% (Human Neuronal Cell, 1 µM); 36% (Human Neuronal Cell, 5 µM); 79.8% under setting [1]. In the case of “CCTACATCTCATACTTG (sugars l3 d11 l3, PS)”, the target mRNA inhibition under setting [1] came to 96%. As to “CCTACATCTCATACTTGC (sugars l2 d13 l3, PS)”, the target mRNA inhibition under setting [1] worked out at 96.8%. For the sequence “CCTACATCTCATACTTGC (sugars l3 d12 l3, PS)”, the target mRNA inhibition runs as follows: (Human Neuronal Cell, 0.2 µM) -39%; (Human Neuronal Cell, 1 µM) -21%; (Human Neuronal Cell, 5 µM) -27%. Take CCTCTGACAACCATTA (sugars l4 d10 l2, PS): the target mRNA inhibition stood at 30% (Human Neuronal Cell, 0.2 µM) and 31% (Human Neuronal Cell, 1 µM).

As to CCTTAATCTGTATCAC (sugars l3 d10 l3, PS), the target mRNA inhibition came out at 38% (Human Neuronal Cell, 0.2 µM) and 52% (Human Neuronal Cell, 1 µM).

As to “CCTTCCCTTTGATAACA (sugars l2 d12 l3, PS)”, the target mRNA inhibition runs as follows: (Human Neuronal Cell, 0.2 µM) 43%; (Human Neuronal Cell, 1 µM) 62%. For the sequence “CGAATCTTGACATACAGG (sugars l3 d12 l3, PS)”, the target mRNA inhibition is 8% (Human Neuronal Cell, 0.2 µM); 19% (Human Neuronal Cell, 1 µM); 14% (Human Neuronal Cell, 5 µM). Consider “CTAACTGTTTCTCAATT (sugars l3 d11 l3, PS)”, for which the target mRNA inhibition runs as follows: (Human Neuronal Cell, 0.2 µM) 29%; (Human Neuronal Cell, 1 µM) 32%. On to CTAATCCTATTCCAAC (sugars l2 d10 l4, PS), for which the target mRNA inhibition (Human Neuronal Cell, 0.2 µM) is 33% and the target mRNA inhibition (Human Neuronal Cell, 1 µM) worked out at 49%.

As to CTAATGCAATAACCCA (sugars l2 d10 l4, PS), the target mRNA inhibition was found to be 45% (Human Neuronal Cell, 0.2 µM) and 34% (Human Neuronal Cell, 1 µM).

As for “CTACATCTCATACTTGC (sugars l3 d11 l3, PS)”, the target mRNA inhibition reads like this: (Human Neuronal Cell, 0.2 µM) -4%; (Human Neuronal Cell, 1 µM) -27%; (Human Neuronal Cell, 5 µM) 1%; under setting [1], 94.6%. Regarding “CTATTCAATAAACTAAACA (sugars l4 d13 l2, PS)”, the target mRNA inhibition reads like this: (Human Neuronal Cell, 0.2 µM) -6%; (Human Neuronal Cell, 1 µM) -9%.

“CTCAAAGATCATTCTCA (sugars l1 d2 l1 d7 l6, PS)”: the target mRNA inhibition (Human Neuronal Cell, 7.5 µM) came out at 16%. On the same count and under the same terms, the value for “CTCAAAGATCATTCTCA (sugars l3 d10 l1 d1 l2, PS)” was 61%. Still for that read-out and setting: the value for “CTCAAAGATCATTCTCA (sugars ldldldddddddlldll, PS)” was 65%. For “CTCATCCCTCCAAGAAA (sugars l4 d11 l2, PS)”, the target mRNA inhibition runs as follows: (Human Neuronal Cell, 0.2 µM) -3%; (Human Neuronal Cell, 1 µM) -15%; (Human Neuronal Cell, 5 µM) -9%; under setting [1], 90.9%. Turning to “CTCATTTACATTATTATT (sugars l4 d12 l2, PS)”, the target mRNA inhibition (Human Neuronal Cell, 0.2 µM) was 34% and the target mRNA inhibition (Human Neuronal Cell, 1 µM) was 44%.

Take CTCCATATTTAAATCC (sugars l4 d10 l2, PS): the target mRNA inhibition runs as follows: (Human Neuronal Cell, 0.2 µM) 8%; (Human Neuronal Cell, 1 µM) 21%. For CTCCTTTATGACTCCA (sugars l3 d11 l2, PS), the target mRNA inhibition by setting is: (Human Neuronal Cell, 0.2 µM) 50%; (Human Neuronal Cell, 1 µM) 56%. The matching figures for “CTCCTTTATGACTCCAA (sugars l4 d11 l2, PS)”: 41% and 59%.

Regarding CTCTAATCCTATTCCA (sugars l3 d10 l3, PS), the target mRNA inhibition was 50% (Human Neuronal Cell, 0.2 µM) and 58% (Human Neuronal Cell, 1 µM). The like results for CTCTACAACAGTCCCA (sugars l3 d11 l2, PS) were, in that order, 53% and 51%. Take CTCTGCAATACACCAA (sugars l2 d10 l4, PS): the target mRNA inhibition turned out to be 54% (Human Neuronal Cell, 0.2 µM) and 55% (Human Neuronal Cell, 1 µM).

CTCTTTAGATTCATCC (sugars l4 d10 l2, PS): the target mRNA inhibition (Human Neuronal Cell, 0.2 µM) worked out at 56% and the target mRNA inhibition (Human Neuronal Cell, 1 µM) was 48%.

On to CTCTTTGTCAAATACT (sugars l4 d10 l2, PS), for which the target mRNA inhibition runs as follows: (Human Neuronal Cell, 0.2 µM) 33%; (Human Neuronal Cell, 1 µM) 13%. The matching figures for CTGCTTAATTATATCA (sugars l4 d10 l2, PS): 35% and 38%. With “CTGTATACACCATCCCA (sugars l1 d3 l1 d10 l2, PS)”, for the setting “Human Neuronal Cell, 7.5 µM”, the target mRNA inhibition worked out at 65%. Same read-out and setting: the value for “CTGTATACACCATCCCA (sugars l1 d10 l1 d3 l2, PS)” was 54%; that for “CTGTATACACCATCCCA (sugars ldddlddddddddldll, PS)” was 68%. The same measure, in the same setting: the same measure for “CTGTATACACCATCCCA (sugars ldldlddddddddddll, PS)”: 61%.

In the case of “CTGTTTATACCCTTTCCA (sugars l1 d4 l1 d10 l2, PS)”, for the setting “Human Neuronal Cell, 7.5 µM”, the target mRNA inhibition amounted to 58%. The same measure, in the same setting: the value for “CTGTTTATACCCTTTCCA (sugars l1 d12 l1 d2 l2, PS)” was 58%.

“CTTCACACCTATTATATA (sugars l2 d12 l4, PS)”: the target mRNA inhibition was found to be 7% (Human Neuronal Cell, 0.2 µM) and 32% (Human Neuronal Cell, 1 µM). The matching figures for CTTTAATGCTTCTAAC (sugars l2 d10 l4, PS): -3% and 26%. The matching figures for “CTTTACTCTGCAATACA (sugars l2 d11 l4, PS)”: 49% and 59%. The like results for “CTTTCCATTTATTTCCAT (sugars l3 d12 l3, PS)” were, in that order, 43% and 51%. In the case of “CTTTCCATTTATTTCCATT (sugars l1 d3 l1 d11 l3, PS)”, the target mRNA inhibition (Human Neuronal Cell, 7.5 µM) was 58%. The same measure, in the same setting: the same measure for “CTTTCCATTTATTTCCATT (sugars llddldddddddddlddll, PS)”: 61%. Still for that read-out and setting: the value for “CTTTCCATTTATTTCCATTT (sugars l1 d13 l1 d3 l2, PS)” was 35%. The same measure, in the same setting: the same measure for “CTTTCCATTTATTTCCATTT (sugars ldldddldddddddddldll, PS)”: 54%. “GAAAATCTCAACTACCATT (sugars l3 d1 l1 d10 l4, PS)”: the target mRNA inhibition (Human Neuronal Cell, 7.5 µM) is 57%. As to “GAAAATCTCAACTACCATT (sugars l4 d10 l2 d1 l2, PS)”, for the setting “Human Neuronal Cell, 7.5 µM”, the target mRNA inhibition came to 60%. Same read-out and setting: the value for “GAAAATCTCAACTACCATT (sugars ldllldddddddlddllll, PS)” was 57%; that for “GAAAATCTCAACTACCATT (sugars llddldddddddlddddll, PS)” was 52%. Consider GAAACTATTACTCCTA (sugars l2 d10 l4, PS), for which the target mRNA inhibition (Human Neuronal Cell, 0.2 µM) is 44% and the target mRNA inhibition (Human Neuronal Cell, 1 µM) came to 55%. Regarding “GAATCTTCTAATTCCAC (sugars l2 d11 l4, PS)”, the target mRNA inhibition is, setting by setting: (Human Neuronal Cell, 0.2 µM) 29%; (Human Neuronal Cell, 1 µM) 31%. As to GACCACACTTTCTACC (sugars l2 d12 l2, PS), the target mRNA inhibition is 18% (Human Neuronal Cell, 0.2 µM) and 42% (Human Neuronal Cell, 1 µM). The matching figures for “GACCACACTTTCTACCA (sugars l2 d13 l2, PS)”: 27% and 48%. The matching figures for GACCTCAATACTCTAC (sugars l4 d10 l2, PS): 37% and 44%. The like results for “GACCTCAATACTCTACT (sugars l3 d11 l3, PS)” were, in that order, 49% and 58%. On to “GATCATTCTCAACAATTA (sugars l2 d1 l2 d8 l5, PS)”, for which the target mRNA inhibition (Human Neuronal Cell, 7.5 µM) was found to be 26%.

On to “GATCATTCTCAACAATTA (sugars ldllldddddddldldll, PS)”, for which, under “Human Neuronal Cell, 7.5 µM”, the target mRNA inhibition was found to be 35%.

As for “GATCATTCTCAACAATTAA (sugars lldlllddddddlllddll, PS)”, the target mRNA inhibition (Human Neuronal Cell, 7.5 µM) is -2%.

As for “GCAACATTATTAACCACCT (sugars lddldldddddddddddll, PS)”, the target mRNA inhibition (Human Neuronal Cell, 7.5 µM) turned out to be 60%. The same measure, in the same setting: the value for “GCACATTCTTTCTATAC (sugars l1 d1 l3 d9 l3, PS)” was 50%; that for “GCACATTCTTTCTATACC (sugars l1 d15 l2, PS)” was 25%; that for “GCACATTCTTTCTATACC (sugars ldldlldddddddlddll, PS)” was 54%. The same measure, in the same setting: the value for “GCACATTCTTTCTATACC (sugars ldldlldddddddldlll, PS)” was 51%. For “GCATTAGGCACATTACAT (sugars l3 d12 l3, PS)”, the target mRNA inhibition (Human Neuronal Cell, 0.2 µM) was -8%; the target mRNA inhibition (Human Neuronal Cell, 1 µM) turned out to be 2%; the target mRNA inhibition (Human Neuronal Cell, 5 µM) was found to be 15%. Consider GCTCACACTAATTATT (sugars l2 d10 l4, PS), for which the target mRNA inhibition came out at 25% (Human Neuronal Cell, 0.2 µM) and 43% (Human Neuronal Cell, 1 µM). The matching figures for GCTCCCAAACAACTAA (sugars l2 d12 l2, PS): 36% and 72%. For “GCTTTTAACCAGAGTGG (sugars l1 d12 l4, PS)”, the target mRNA inhibition (Human Neuronal Cell, 7.5 µM) stood at 73%.

Consider “GTTCTACTATACTTTCCT (sugars l1 d2 l1 d12 l2, PS)”, for which the target mRNA inhibition (Human Neuronal Cell, 7.5 µM) was determined as 53%.

With “GTTCTACTATACTTTCCT (sugars l2 d1 l1 d12 l2, PS)”, where the note is “Human Neuronal Cell, 7.5 µM”, the target mRNA inhibition came out at 60%.

As to “GTTCTACTATACTTTCCT (sugars lldldlddddddddddll, PS)”, the target mRNA inhibition (Human Neuronal Cell, 7.5 µM) is 63%. As for “GTTCTACTATACTTTCCTC (sugars lddddldddddddddldll, PS)”, the target mRNA inhibition (Human Neuronal Cell, 7.5 µM) was determined as 55%. Take GTTTATACCCTTTCCA (sugars l2 d11 l3, PS): the target mRNA inhibition (Human Neuronal Cell, 0.2 µM) came to 49% and the target mRNA inhibition (Human Neuronal Cell, 1 µM) is 58%. Take “GTTTATACCCTTTCCAAT (sugars l1 d2 l1 d12 l2, PS)”: the target mRNA inhibition (Human Neuronal Cell, 7.5 µM) stood at 61%. On the same count and under the same terms, the value for “GTTTATACCCTTTCCAAT (sugars l1 d13 l4, PS)” was 59%.

For “GTTTATACCCTTTCCAAT (sugars ldddlddddddddldlll, PS)”, under “Human Neuronal Cell, 7.5 µM”, the target mRNA inhibition was 56%.
